In brackets after ≈: the same amount, converted by molar mass.
What was measured:
E. faecium ATCC 6569 = experiment: Whole cell antimicrobial screen, MIC; type: cell-based; conditions: Enterococcus faecium, ATCC6569
Description: (§1) Compounds were tested for antimicrobial activity against a panel of organisms according to standard procedures described by the National Committee for Clinical Laboratory Standards (NCCLS document M7-A3, Vol. 13, No. 25, 1993/NCCLS document M27-P, Vol. 12, No. 25, 1992). Compounds were dissolved in 100% dimethyl sulfoxide and were diluted to the final reaction concentration (0.1 μg/mL-500 μg/mL) in microbial growth media. In al cases the final concentration of dimethyl sulfoxide incubated with cells is less than or equal to 1%. For minimum inhibitory concentration (MIC) calculations, 2-fold dilutions of compounds were added to wells of a microtiter plate containing 5×10^4 bacteria or fungal cells in a final volume of 100 lambda of an appropriate media (Mueller-Hinton Broth; Haemophilus Test Media; Mueller-Hinton Broth+5% Sheep Blood; or […]). Plates were incubated overnight at an appropriate temperature (30° C.-37° C.) and optical densities (measure of cell growth) were measured using a commercial plate reader. The MIC value is defined as the lowest compound concentration inhibiting growth of the test organism.

C. albicans ATCC 10231 = experiment: Whole cell antimicrobial screen, MIC; type: cell-based; conditions: Candida albicans, ATCC10231
Description: as §1

[1] = test system: S. epidermidis ATCC 33501; experiment: Whole cell antimicrobial screen, MIC; type: cell-based; conditions: Staphylococcus epidermidis, ATCC33501
Description: as §1

[2] = test system: S. saprophyticus ATCC 35552; experiment: Whole cell antimicrobial screen, MIC; type: cell-based; conditions: Staphylococcus saprophyticus, ATCC35552
Description: as §1

E. faecalis ATCC 33011 = experiment: Whole cell antimicrobial screen, MIC; type: cell-based; conditions: Enterococcus faecalis, ATCC33011
Description: as §1

S. aureus ATCC 6538P = experiment: Whole cell antimicrobial screen, MIC; type: cell-based; conditions: Staphylococcus aureus, ATCC6538P
Description: as §1

S. aureus ATCC 14154 = experiment: Whole cell antimicrobial screen, MIC; type: cell-based; conditions: Staphylococcus aureus, ATCC14154
Description: as §1

[3] = molecular target: E. Coli. IleRS (isoleucyl-tRNA synthetase) (Escherichia coli, UniProt P00956); experiment: Inhibition of isoleucyl-tRNA synthetase (aminoacylation of tRNA with [3H]isoleucine); type: biochemical; conditions: E. coli enzyme; irreversible inhibitors: values are 50% of the active enzyme concentration; read-out: IC50 E.Coli. IleRS
Sequence of E. Coli. IleRS (isoleucyl-tRNA synthetase) (P00956 whole entry): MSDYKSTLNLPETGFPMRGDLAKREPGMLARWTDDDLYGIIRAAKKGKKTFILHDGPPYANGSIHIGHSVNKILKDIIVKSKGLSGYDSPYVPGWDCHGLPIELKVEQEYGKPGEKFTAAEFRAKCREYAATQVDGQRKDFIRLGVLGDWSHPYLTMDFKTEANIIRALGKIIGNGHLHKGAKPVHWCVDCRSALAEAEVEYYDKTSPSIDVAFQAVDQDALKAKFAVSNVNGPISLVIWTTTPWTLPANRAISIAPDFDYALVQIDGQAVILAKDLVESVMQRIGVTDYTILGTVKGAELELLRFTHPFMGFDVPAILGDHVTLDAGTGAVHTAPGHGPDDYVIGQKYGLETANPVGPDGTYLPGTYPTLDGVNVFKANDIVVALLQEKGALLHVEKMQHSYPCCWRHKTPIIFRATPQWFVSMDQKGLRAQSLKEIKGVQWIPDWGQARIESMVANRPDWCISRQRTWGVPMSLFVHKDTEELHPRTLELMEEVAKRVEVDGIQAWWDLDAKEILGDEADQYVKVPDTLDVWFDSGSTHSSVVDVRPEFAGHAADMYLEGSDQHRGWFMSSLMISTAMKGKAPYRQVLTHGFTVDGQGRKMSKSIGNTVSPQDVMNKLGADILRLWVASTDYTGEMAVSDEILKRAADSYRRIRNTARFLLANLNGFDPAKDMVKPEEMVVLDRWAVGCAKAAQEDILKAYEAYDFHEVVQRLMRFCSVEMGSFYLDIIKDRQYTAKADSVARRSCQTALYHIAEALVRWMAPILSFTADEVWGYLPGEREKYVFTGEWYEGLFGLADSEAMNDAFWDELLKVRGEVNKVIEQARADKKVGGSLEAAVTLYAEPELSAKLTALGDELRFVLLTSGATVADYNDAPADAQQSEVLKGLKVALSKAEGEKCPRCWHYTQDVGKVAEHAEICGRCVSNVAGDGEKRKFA
Description: The extent of aminoacylation of tRNA with isoleucine catalyzed by isoleucyl-tRNA synthetase enzyme was measured by monitoring the incorporation of [3H] isoleucine into trichloroacetic acid-precipitable tRNA in the presence of a compound of Formula I, as compared with activity in the absence of inhibitor. The isoleucyl-tRNA synthetase enzymes are well known in the prior art and can be obtained and purified by known methods (for example see: D. Kern et at., Biochimie, 61, 1257-1272 (1979) and J. Gilbart et al., Antimicrobial Agents and Chemotherapy, 37 (1), 32-38 (1993)).
Isoleucyl-tRNA synthetase enzyme (0.08-2.0 nM, preferably, 0.4 nM) was first pre-incubated at 25° C. with 0.05 mg/ml bovine serum albumin, 10 mM DTT, 2.5% dimethyl sulfoxide, with or without a compound of Formula I, for 20 minutes. At this point a substrate solution (a solution containing the following: ATP, [^3 H]isoleucine, tRNA, HEPES, magnesium chloride, and potassium chloride) was added to give a final concentration of 0.0286 mg/ml bovine serum albumin, 5.7 mM DTT, 4 mM ATP, 5-20 μM [^3 H] isoleucine (1-15 Ci/mmol), 90 μM crude tRNA or 2 μM isoleucine specific tRNA, 1.4% dimethyl sulfoxide, 30 mM HEPES (pH 7.5), 10 mM magnesium chloride, and 50 mM potassium chloride and incubated at 25° C. Aliquots were removed at selected times (e.g. 5, 10, 20 minutes) and applied to 3MM filter paper discs (Whatman) and then dropped into 5% (wt/vol) trichloroacetic acid for >5 minutes. Filters were washed for three 10-minute periods in 5% trichloroacetic acid, rinsed in 95% ethanol and diethyl ether, and radioactivity was measured with Betafluor™ (National Diagnostics) by liquid scintillation counting.
Inhibitor activity is reported in Table II as an IC50 value (inhibitor concentration causing 50% inhibition of enzyme activity) per a known amount of active enzyme. In the case of irreversible inhibitors (1:1 stoichiometry) these values are 50% of the active enzyme concentration. The IC50 (in nM, E. coli) values of representative compounds of the present invention are listed in the second column of Table II.

B. subtilis ATCC 6633 = experiment: Whole cell antimicrobial screen, MIC; type: cell-based; conditions: Bacillus subtilis, ATCC6633
Description: as §1

K. pneumonia ATCC 4352 = experiment: Whole cell antimicrobial screen, MIC; type: cell-based; conditions: Klebsiella pneumoniae, ATCC4352
Description: as §1

Structure (SMILES)	MIC (E. faecium ATCC 6569) [µg/mL]	MIC (C. albicans ATCC 10231) [µg/mL]	MIC [1] [µg/mL]	MIC [2] [µg/mL]	MIC (E. faecalis ATCC 33011) [µg/mL]	MIC (S. aureus ATCC 6538P) [µg/mL]	MIC (S. aureus ATCC 14154) [µg/mL]	IC50 [3] [nM]	MIC (B. subtilis ATCC 6633) [µg/mL]	MIC (K. pneumonia ATCC 4352) [µg/mL]
CC[C@H](C)[C@H](N)C(=O)NS(=O)(=O)OC[C@H]1O[C@@H](CCn2nnc(-c3ccc(Oc4ccc(OC)cc4)cc3)n2)[C@H](O)[C@@H]1O [XII]	10 (≈ 16.1 µM)	500 (≈ 806 µM)	< 5	25 (≈ 40.3 µM)	500 (≈ 806 µM)	25 (≈ 40.3 µM)	50 (≈ 80.6 µM)	3		
CC[C@H](C)[C@H](N)C(=O)NS(=O)(=O)OC[C@H]1O[C@@H](CCn2nnc(-c3ccc(C#Cc4cccc([N+](=O)[O-])c4)cc3)n2)[C@H](O)[C@@H]1O [III]	> 500	> 500	1 (≈ 1.55 µM)	5 (≈ 7.77 µM)	> 500	50 (≈ 77.7 µM)	50 (≈ 77.7 µM)	3		
CC[C@H](C)[C@H](N)C(=O)NS(=O)(=O)OC[C@H]1O[C@@H](CCn2nnc(-c3ccc(Oc4ccc(N)cc4)cc3)n2)[C@H](O)[C@@H]1O [XIII]	25 (≈ 41.3 µM)	> 500	10 (≈ 16.5 µM)	25 (≈ 41.3 µM)	> 500	50 (≈ 82.6 µM)	100 (≈ 165 µM)	0.4		
CC[C@H](C)[C@H](N)C(=O)NS(=O)(=O)OC[C@H]1O[C@@H](CCn2nnc(-c3ccc(C(=O)OC)cc3)n2)[C@H](O)[C@@H]1O [VII]	100 (≈ 180 µM)	> 500	10 (≈ 18 µM)	50 (≈ 89.8 µM)	> 500	100 (≈ 180 µM)	500 (≈ 898 µM)	0.53		
CC[C@H](C)[C@H](N)C(=O)NS(=O)(=O)OC[C@H]1O[C@@H](CCn2nnc(-c3ccc(-c4ccc(F)c(F)c4)cc3)n2)[C@H](O)[C@@H]1O [XXIII]	100 (≈ 164 µM)	10 (≈ 16.4 µM)	10 (≈ 16.4 µM)	25 (≈ 40.9 µM)		50 (≈ 81.9 µM)	100 (≈ 164 µM)	2.9	50 (≈ 81.9 µM)	100 (≈ 164 µM)
CC[C@H](C)[C@H](N)C(=O)NS(=O)(=O)OC[C@H]1O[C@@H](CCn2nnc(-c3ccc([N+](=O)[O-])cc3)n2)[C@H](O)[C@@H]1O [VIII]	500 (≈ 920 µM)	> 500	10 (≈ 18.4 µM)	100 (≈ 184 µM)	> 500	500 (≈ 920 µM)	500 (≈ 920 µM)	0.5		
CC[C@H](C)[C@H](N)C(=O)NS(=O)(=O)OC[C@H]1O[C@@H](CCn2nnc(CCCOc3ccccc3)n2)[C@H](O)[C@@H]1O [XXIX]	> 500	> 500	25 (≈ 44.9 µM)	500 (≈ 898 µM)	> 500	500 (≈ 898 µM)	> 500	0.3		
CC[C@H](C)[C@H](N)C(=O)NS(=O)(=O)OC[C@H]1O[C@@H](CCn2nnc(Cc3ccc(Oc4ccccc4)cc3)n2)[C@H](O)[C@@H]1O [XXX]	100 (≈ 165 µM)	> 200	25 (≈ 41.3 µM)	100 (≈ 165 µM)	500 (≈ 827 µM)	100 (≈ 165 µM)	500 (≈ 827 µM)	2.7		
CC[C@H](C)[C@H](N)C(=O)NS(=O)(=O)OC[C@H]1O[C@@H](CCn2nnc(-c3ccc(Oc4nccs4)cc3)n2)[C@H](O)[C@@H]1O [XVII]	50 (≈ 83.7 µM)	> 500	25 (≈ 41.8 µM)	50 (≈ 83.7 µM)	> 500	100 (≈ 167 µM)	500 (≈ 837 µM)	1		
